From patent US5238838A (Degussa Aktiengesellschaft, priority 1991, dated 1993)
Values joined by “and” are separate entries in the source; they are usually repeats but may differ in a detail not shown here. Equal values may be shown once. “Also recorded” adds a separate entry of the source. Where a name gives a salt, the structure may show the parent alone. Read-outs that look alike come from different tables or passages of the source. Where a SMILES comes first, the peptide text is derived from it.

What was measured:
[1] = tested on: L-carnitine amidase; assay: Test for the induction of L-carnitine amidase; assay type: cell-based, strain DSM 6230; conditions: for Activity (mU/mg) / Activity (mU/ml): 5 g/l of the substance as inductor, 36 h, L-carnitine amide as substrate; for Induction of L-carnitine amidase (in words): strain DSM 6230
Procedure: (§1) In this test, various substances were examined for their induction action. At the same time, the growth on these compounds was followed. The medium used was a minimum medium with 1.0 g/l instead of 0.5 g/l yeast extract, to which 5 g/l of the substance to be tested were added in each instance. The culture without inductor contained 5 g/l yeast extract. All tests were carried out with 20 ml shaking cultures which were incubated 36 h at 30° C. and 120 rpms in a rotating [round]shaking machine. These cultures were inoculated with 1% of an initial culture of strain DSM 6230. L-carnitine amide was used as substrate for the enzyme test.
(§2) At the same time, the growth of the bacteria was followed in these carnitine amide concentrations. The culture conditions corresponded to those in example 3.

[2] = tested on: strain DSM 6230; assay: Growth of strain DSM 6230 on the test substances (OD660); assay type: cell-based; conditions: for OD660: 5 g/l of the substance in minimum medium with 1.0 g/l yeast extract, 36 h, 30° C.; for Growth of the strain on the substance (in words): strain DSM 6230
Procedure: 1367 strains were isolated during the screening program. These strains were incubated in 100 ml Erlenmeyer flasks containing 20 ml of the particular enrichment medium in a rotary agitator at 30° C. and 120 rpms. The optical density at 660 nm was taken as an indication for the cell growth.
as §1, §2

[3] = tested on: L-carnitine amidase; assay: Substrate spectrum of L-carnitine amidase; assay type: biochemical, strain DSM 6230; conditions: substrate 50 mM; 30° C.; 100 mM potassium phosphate buffer pH 8
Procedure: The enzyme test was carried out at 30° C. in 100 mM potassium phosphate buffer pH 8. The substrate concentration was 50 mM.

[4] = tested on: L-carnitine amidase;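 also: additives put into the enzyme mixture before substrate, reaction then initiated by substrate addition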
Procedure: In order to test the influence of various additives on the enzyme activity, they were added to the test batches without substrate in a final concentration of 1 mM and 10 mM in each instance. The reaction batches were first incubated for 45 min. at 30° C. before the reaction was started by adding substrate solution.

[5] = carnitine amide concentration 0.5 g/l
[6] = carnitine amide concentration 1.0 g/l
[7] = carnitine amide concentration 2.0 g/l
[8] = carnitine amide concentration 3.0 g/l
[9] = carnitine amide concentration 5.0 g/l
[10] = carnitine amide concentration 10.0 g/l
[11] = carnitine amide concentration 15.0 g/l
[12] = carnitine amide concentration 20.0 g/l
[13] = carnitine amide concentration 25.0 g/l
[14] = additive 1 mM, 45 min. preincubation at 30° C.
[15] = additive 10 mM, 45 min. preincubation at 30° C.

C[N+](C)(C)CC(O)CC(N)=O (racemic) [DL-carnitine amide]
Activity (mU/mg) [1]: 1673 mU/mg | Activity (mU/ml) [1]: 8867 mU/ml | amidase activity (U/ml) [1, 5]: 0.7 U/ml | amidase activity (U/ml) [1, 6]: 2.4 U/ml | amidase activity (U/ml) [1, 7]: 6.1 U/ml | amidase activity (U/ml) [1, 8]: 7.3 U/ml | amidase activity (U/ml) [1, 9]: 8.9 U/ml | amidase activity (U/ml) [1, 10]: 8.6 U/ml | amidase activity (U/ml) [1, 11]: 7.3 U/ml | amidase activity (U/ml) [1, 12]: 7.1 U/ml | amidase activity (U/ml) [1, 13]: 6.7 U/ml | OD660 [2]: 2.7 | OD660 nm [2, 5]: 1.1 | OD660 nm [2, 6]: 1.3 | OD660 nm [2, 7]: 1.7 | OD660 nm [2, 8]: 2.0 | OD660 nm [2, 9]: 2.8 | OD660 nm [2, 10]: 3.9 | OD660 nm [2, 11]: 3.7 | OD660 nm [2, 12]: 3.6 | OD660 nm [2, 13]: 3.5 | Growth of the strain on the substance (in words) [2]: Good growth

C[N+](C)(C)CC(O)CC#N (racemic) [DL-carnitine nitrile]
Activity (mU/mg) [1]: 88 mU/mg | Activity (mU/ml) [1]: 221 mU/ml | OD660 [2]: 0.8

C[N+](C)(C)CC(O)CC(=O)[O-] (racemic) [DL-carnitine]
Activity (mU/mg) [1]: 1255 mU/mg | Activity (mU/ml) [1]: 5773 mU/ml | OD660 [2]: 2.5 | Growth of the strain on the substance (in words) [2]: Good growth

C[C@@H](O)[C@H](N)C(N)=O [1-Thr-NH2]
Rel. activity (%) [3]: 0%

OCCS [2-mercaptoethanol]
Enzyme activity (%) [4, 14]: 100% | Enzyme activity (%) [4, 15]: 101%

CC=O [Acetaldehyde]
Enzyme activity (%) [4, 14]: 83% | Enzyme activity (%) [4, 15]: 81%

CC(N)=O [Acetamide]
Rel. activity (%) [3]: 0% | Activity (mU/mg) [1]: 0 mU/mg | Activity (mU/ml) [1]: 0 mU/ml | OD660 [2]: 1.0

C=CC(N)=O [Acrylamide]
Rel. activity (%) [3]: 0% | Activity (mU/mg) [1]: 136 mU/mg | Activity (mU/ml) [1]: 170 mU/ml | OD660 [2]: 0.8

O=[N+]([O-])[O-].[Ag+] [AgNO3]
Enzyme activity (%) [4, 14]: 65%

[Ba+2].[Cl-].[Cl-] [BaCl2]
Enzyme activity (%) [4, 14]: 102% | Enzyme activity (%) [4, 15]: 105%

NC(=O)c1ccccc1 [Benzamide]
Rel. activity (%) [3]: 0% | Activity (mU/mg) [1]: 0 mU/mg | Activity (mU/ml) [1]: 0 mU/ml | OD660 [2]: 0.3

CCCC(N)=O [Butyramide]
Rel. activity (%) [3]: 0% | Activity (mU/mg) [1]: 18 mU/mg | Activity (mU/ml) [1]: 54 mU/ml | OD660 [2]: 0.9

[Ca+2].[Cl-].[Cl-] [CaCl2]
Enzyme activity (%) [4, 14]: 103% | Enzyme activity (%) [4, 15]: 90%

[Cl-].[Cl-].[Co+2] [CoCl2]
Enzyme activity (%) [4, 14]: 90% | Enzyme activity (%) [4, 15]: 76% | Reduction of the enzyme activity (in words) ([4]; concentration of 10 mM): reduction of the enzyme activity

[Cl][Cu][Cl] [CuCl2]
Enzyme activity (%) [4, 14]: 70% | Enzyme activity (%) [4, 15]: 54%

N[C@@H]1CON=C1O [Cycloserine]
Enzyme activity (%) [4, 14]: 96% | Enzyme activity (%) [4, 15]: 97%

NC(=O)[C@H](N)Cc1ccccc1 [D-Phe-NH2]
Rel. activity (%) [3]: 0%

CC(C)C[C@@H](N)C(N)=O [D-leucine amide]
Activity (mU/mg) [1]: 81 mU/mg | Activity (mU/ml) [1]: 170 mU/ml | OD660 [2]: 0.8

C[N+](C)(C)CC(=O)CC(=O)[O-] [Dehydrocarnitine]
Activity (mU/mg) [1]: 279 mU/mg | Activity (mU/ml) [1]: 837 mU/ml | Induction of L-carnitine amidase (in words) [1]: induced; also recorded: Inductors; also recorded: induce the enzyme | OD660 [2]: 0.8 | Growth of the strain on the substance (in words) [2]: can not be metabolized or are metabolized very poorly

CCC(CC)(C(=O)O)C(=O)O [Diethyl malonic acid]
Enzyme activity (%) [4, 14]: 92% | Enzyme activity (%) [4, 15]: 68% | Reduction of the enzyme activity (in words) ([4]; concentration of 10 mM): reduction of the enzyme activity

O=C(O)c1cc(SSc2ccc([N+](=O)[O-])c(C(=O)O)c2)ccc1[N+](=O)[O-] [Dinitrodithiodibenzoic acid]
Enzyme activity (%) [4, 14]: 34%

CCN1C(=O)C=CC1=O [Ethyl maleinimide]
Enzyme activity (%) [4]: 99% | Enzyme activity (%) [4, 14]: 100%

[Cl][Fe][Cl] [FeCl2]
Enzyme activity (%) [4, 14]: 86% | Enzyme activity (%) [4, 15]: 57%

[Cl][Fe]([Cl])[Cl] [FeCl3]
Enzyme activity (%) [4, 14]: 87% | Enzyme activity (%) [4, 15]: 46%

NCC(=O)NCC(N)=O [Gly-Gly-NH2]
Rel. activity (%) [3]: 0%

C[N+](C)(C)CC(=O)[O-] [Glycine betaine]
Activity (mU/mg) [1]: 33 mU/mg | Activity (mU/ml) [1]: 183 mU/ml | OD660 [2]: 2.9 | Growth of the strain on the substance (in words) [2]: Good growth

[Cl][Hg][Cl] [HnCl2]
Enzyme activity (%) [4, 14]: < 1%

O=C(O)CI [Iodoacetate]
Enzyme activity (%) [4]: 97% and 72% | Reduction of the enzyme activity (in words) [4]: reduction of the enzyme activity

C[C@H](N)C(N)=O [L-Ala-NH2]
Rel. activity (%) [3]: 0%

N=C(N)NCCC[C@H](N)C(N)=O [L-Arg-NH2]
Rel. activity (%) [3]: 0%

NC(=O)C[C@H](N)C(N)=O [L-Asn-NH2]
Rel. activity (%) [3]: 0%

NC(=O)[C@H](Cc1ccccc1)NC(=O)[C@@H](N)CC(=O)O [L-Asp-L-Phe-NH2] (H-Asp-Phe-NH2)
Rel. activity (%) [3]: 0%

NC(=O)[C@@H](N)Cc1c[nH]cn1 [L-His-NH2]
Rel. activity (%) [3]: 0%

CC[C@H](C)[C@H](N)C(N)=O [L-Ile-NH2]
Rel. activity (%) [3]: 0%

CSCC[C@H](N)C(N)=O [L-Met-NH2]
Rel. activity (%) [3]: 0%

NC(=O)[C@@H](N)CO [L-Ser-NH2]
Rel. activity (%) [3]: 0%

NC(=O)[C@@H](N)Cc1c[nH]c2ccccc12 [L-Trp-NH2]
Rel. activity (%) [3]: 0%

NC(=O)CNC(=O)[C@@H](N)Cc1ccc(O)cc1 [L-Tyr-Gly-NH2]
Rel. activity (%) [3]: 0%

NC(=O)[C@@H](N)Cc1ccc(O)cc1 [L-Tyr-NH2]
Rel. activity (%) [3]: 0%

CC(C)[C@H](N)C(=O)N[C@@H](Cc1ccccc1)C(N)=O [L-Val-L-Phe-NH2] (H-Val-Phe-NH2)
Rel. activity (%) [3]: 0%

C[N+](C)(C)C[C@H](O)CC(=O)[O-] [L-carnitine, 3-hydroxy-4-trimethylaminobutyrate]
Induction of L-carnitine amidase (in words) [1]: induced; also recorded: Inductors

CC(C)CC(N)C(N)=O (stereo not shown) [Leu-NH2]
Rel. activity (%) [3]: 0%

[Cl-].[Cl-].[Mg+2] [MgCl2]
Enzyme activity (%) [4, 14]: 96% | Enzyme activity (%) [4, 15]: 88%

[Cl][Mn][Cl] [MnCl2]
Enzyme activity (%) [4, 14]: 89% | Enzyme activity (%) [4, 15]: 76% | Reduction of the enzyme activity (in words) ([4]; concentration of 10 mM): reduction of the enzyme activity

Cc1ccc(S(=O)(=O)N[C@@H](CCCCN)C(=O)CCl)cc1 [Na-tosyl-L-lysyl-chloromethane hydrochloride]
Enzyme activity (%) [4, 14]: 84% | Enzyme activity (%) [4, 15]: 73% | Reduction of the enzyme activity (in words) ([4]; concentration of 10 mM): reduction of the enzyme activity

[F-].[Na+] [NaF]
Enzyme activity (%) [4, 14]: 88% | Enzyme activity (%) [4, 15]: 78% | Reduction of the enzyme activity (in words) ([4]; concentration of 10 mM): reduction of the enzyme activity

[N-]=[N+]=[N-].[Na+] [NaN3]
Enzyme activity (%) [4, 14]: 85% | Enzyme activity (%) [4, 15]: 82%

CN(C)C(=O)Oc1cccc([N+](C)(C)C)c1 [Neostigmine bromide]
Enzyme activity (%) [4, 14]: 100% | Enzyme activity (%) [4, 15]: 94%

[Cl][Ni][Cl] [NiCl2]
Enzyme activity (%) [4, 14]: 80% | Enzyme activity (%) [4, 15]: 79%

NC(=O)c1cccnc1 [Nicotinamide]
Activity (mU/mg) [1]: 28 mU/mg | Activity (mU/ml) [1]: 55 mU/ml | OD660 [2]: 0.7

Cl.N=C(N)c1ccc(N)cc1 [Para-amino benzamidine hydrochloride]
Enzyme activity (%) [4, 14]: 88% | Enzyme activity (%) [4, 15]: 99%

O=C(O)c1cc[c]([Hg][OH])cc1 [Para-hydroxymercuribenzoate]
Enzyme activity (%) [4, 14]: 51%

c1cnc2c(c1)ccc1cccnc12 [Phenanthroline]
Enzyme activity (%) [4, 14]: 89% | Enzyme activity (%) [4, 15]: 82%

O=S(=O)(F)Cc1ccccc1 [Phenylmethane sulfonylfluoride (PMSF), Phenylmethane sulfonylfluoride]
Enzyme activity (%) [4, 14]: 23% | Enzyme activity (%) [4, 15]: 2%

N[C@@H](CCC(=O)N[C@@H](CS)C(=O)NCC(=O)O)C(=O)O [Red. glutathione]
Enzyme activity (%) [4]: 97% and 92% | Reduction of the enzyme activity (in words) [4]: reduction of the enzyme activity

O=C(O)CN(CCN(CC(=O)O)CC(=O)O)CC(=O)O [Titriplex III (EDTA)]
Enzyme activity (%) [4]: 93% and 73% | Reduction of the enzyme activity (in words) [4]: reduction of the enzyme activity

[Cl-].[Cl-].[Zn+2] [ZnCl2]
Enzyme activity (%) [4, 14]: 6%

C[N+](C)(C)CCCC(=O)[O-] [butyrobetaine, γ-butyrobetaine]
Activity (mU/mg) [1]: 566 mU/mg | Activity (mU/ml) [1]: 963 mU/ml | Induction of L-carnitine amidase (in words) [1]: induced; also recorded: Inductors; also recorded: induce the enzyme | OD660 [2]: 0.7 | Growth of the strain on the substance (in words) [2]: can not be metabolized or are metabolized very poorly

CC(C)CC(=O)C(=O)O [α-ketoisocaproic acid]
Enzyme activity (%) [4, 14]: 92% | Enzyme activity (%) [4, 15]: 90%
